In one experiment the test system is Rodents. To be noted: injected intracerebroventricularly (ICV); NPY, ob/ob, agouti, fasted feeding models; cited from earlier work.
In experiment [1] the test system is male volunteers / patients with psychogenic erectile dysfunction. To be noted: cited from earlier work.
For the next experiment, the target named is T1, cloned human MC4R (Homo sapiens, UniProt P32245).
T1 construct: made in house; host or cells: Hi5 insect cells (baculovirus infection); membrane preparation
T1 sequence (P32245 whole entry): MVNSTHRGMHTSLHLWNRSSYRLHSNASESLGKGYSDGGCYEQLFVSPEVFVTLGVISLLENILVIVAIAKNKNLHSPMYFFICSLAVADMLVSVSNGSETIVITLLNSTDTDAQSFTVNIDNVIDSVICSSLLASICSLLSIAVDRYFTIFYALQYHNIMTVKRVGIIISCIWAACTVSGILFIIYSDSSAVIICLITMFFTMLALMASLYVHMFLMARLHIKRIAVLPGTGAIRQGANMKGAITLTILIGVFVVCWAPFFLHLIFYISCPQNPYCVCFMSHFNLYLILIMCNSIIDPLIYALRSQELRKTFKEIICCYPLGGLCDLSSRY
Briefly: Membrane binding assay: competitive inhibition of [125I]NDP-α-MSH binding. To be noted: for Displacement Rate (%) (at 10 μM) / inhibition at 10 µM: [125I]NDP-α-MSH displacement; for IC50: read-out: MC4R IC50; for inhibition at 10 µM: read-out: Displacement Rate (%) (at 10 μM).

Where [2] appears, read: intramuscular, 0.005-0.03 mg/kg, three normal male volunteers.
The mark [3] stands for this setting: subcutaneous, 0.025 mg/kg and 0.1 mg/kg, 10 patients with psychogenic erectile dysfunction.

As to SHU-9119, in the experiment with Rodents, the food intake entry is “reverses this effect and can induce hyperphagia”.
On to MT-II, for which the food intake entry in the experiment with Rodents is “reduced food intake”. Moreover, in experiment [1] (setting [2]), the penile erections entry is given as “intermittent non-painful penile erections” and the “period of erections after dosing” value was 1 to 5 h. Moreover, in experiment [1] (setting [3]), the “onset of transient erections” value is 50 to 180 min and the “responders with transient erections” value is 8.
Broadly, the IC50 is the concentration needed to halve the response being measured. For the compound `N[C@@H](Cc1ccc(OCc2ccccc2Cc2ccccc2)cc1)C(=O)N1CCN(Cc2cccc(Cl)c2Cl)CC1` [Example 215], on cloned human MC4R, the “Displacement Rate (%) (at 10 μM)” value is reported as “+++ (+++ = 91-100)” and the IC50 is less than 1.5 µM.
As to `CC(c1ccccc1)N1CCN(C(=O)[C@@H](N)Cc2ccc(OCc3ccccc3)cc2)CC1` (some centres unmarked) [Example 157], at cloned human MC4R, the inhibition at 10 µM lay in the range of 35 to 70% and the IC50 is more than 3 µM.
For `N[C@@H](Cc1ccc(OCc2ccccc2)cc1)C(=O)N1CCN(Cc2ccc([N+](=O)[O-])cc2)CC1` [Example 149], in that order: 35 to 70% and more than 3 µM.
Consider `Cc1cccc(COc2ccc(C[C@H](N)C(=O)N3CCN(Cc4cccc(Cl)c4Cl)CC3)cc2)c1` [Example 213], for which, at cloned human MC4R, the “Displacement Rate (%) (at 10 μM)” value is “+++ (+++ = 91-100)” and the IC50 was less than 1.5 µM.
Turning to `N[C@@H](Cc1ccc(-c2ccccc2Cl)cc1)C(=O)N1CCN(Cc2cccc(Cl)c2Cl)CC1` [Example 321], at cloned human MC4R, the inhibition at 10 µM was in the range of 91 to 100% and the concentration for half-maximal inhibition (IC50) lay within 1.5 to 3 µM.
For `N[C@@H](Cc1ccc(-c2ccc(OC(F)(F)F)cc2)cc1)C(=O)N1CCN(Cc2cccc(Cl)c2Cl)CC1` [Example 292], in that order: 91 to 100% and less than 1.5 µM.
For `CN(C)c1ccc(CN2CCCN(C(=O)[C@@H](N)Cc3ccc(OCc4ccccc4)cc3)CC2)cc1` [Example 79], in that order: 35 to 70% and more than 3 µM.
For `Cc1ccsc1CN1CCCN(C(=O)[C@@H](N)Cc2ccc(OCc3ccccc3)cc2)CC1` [Example 48], in that order: 35 to 70% and more than 3 µM.
Regarding `COc1ccc(OC)c(COc2ccc(C[C@H](N)C(=O)N3CCN(Cc4cccc(Cl)c4Cl)CC3)cc2)c1` [Example 227], on cloned human MC4R, the “Displacement Rate (%) (at 10 μM)” value is listed as “++ (++ = 71-90)” and the IC50 is more than 3 µM.
In the case of `N[C@@H](Cc1ccc(OCc2ccc(Cl)c(Cl)c2)cc1)C(=O)N1CCN(Cc2cccc(Cl)c2Cl)CC1` [Example 204], at cloned human MC4R, the “Displacement Rate (%) (at 10 μM)” value is “+++ (+++ = 91-100)” and the IC50 is less than 1.5 µM.

The record behind these values is patent publication US6916812B2, “Alpha-aminoamide derivatives as melanocortin agonists” (Bristol-Myers Squibb Company, priority 2001, dated 2005).
